Results published in publication PMC2212407 (The Journal of Experimental Medicine, 1998).
Like-named read-outs stand apart in the source and are kept apart here.

Tests used:
Type in all cases: cell-based, human
[1] = system: T cell line 024; test: Proliferation of CD4+ T cell line 024; settings: T cell line 024 initiated on day 71, autologous APCs
[2] = system: fresh PBMCs from patient 024
[3] = system: fresh PBMCs from asymptomatic HIV-1+ patients
[4] = system: fresh PBMCs from patient 744; test: Proliferation assay of fresh PBMCs from patient 744

| Substance | Stimulation of T cell line 024, result in words [1] | Proliferative response (SI) [2] | Mean proliferation (SI) ([3]; Total, 43 patients) | Mean proliferation (SI) ([3]; patients responding to PHA and tetanus toxoid only (n = 12)) | Mean proliferation (SI) ([3]; patients responding to PHA, tetanus toxoid, and HIV antigens (n = 12)) | Proliferation of fresh PBMCs from patient 744, result in words [4] |
| --- | --- | --- | --- | --- | --- | --- |
| LRPGGKKQYRLKHIV [p17-3/2] | failed to stimulate |  |  |  |  |  |
| LRPRGKKRYKLKHIV [p17-3/1] | failed to stimulate | 1 |  |  |  |  |
| Tetanus toxoid: the recall antigen tetanus toxoid |  |  | 21 ± 65 | 45 ± 117 | 31 ± 32 | showed a response |
